According to publication PMC3626250, “Effects of Borneol on Pharmacokinetics and Tissue Distribution of Notoginsenoside R1 and Ginsenosides Rg1 and Re in Panax notoginseng in Rabbits” (Journal of Analytical Methods in Chemistry, 2013):

How the values were obtained:
[1] = system: Caco-2 cells; assay: MTT cytotoxicity assay toward Caco-2 cells; type: cell-based; conditions: chosen for transport study
Method: The Caco-2 cells were cultured in Dulbecco's modified Eagle's medium (DMEM) supplemented with 20% foetal bovine serum, 1% nonessential amino acids and penicillin-streptomycin, at 37°C in an atmosphere with a relative humidity of 95% and a CO2 flow of 5%. Medium was replaced every 2-3 days. When the cell monolayer reached 80% confluence, the cells were detached with a solution of 0.02% EDTA and 0.25% trypsin. The vinblastine-selected Caco-2 cells were cultivated in the presence of 10 nM vinblastine to induce P-glycoprotein (P-gp) expression. The culture medium was changed to a fresh medium without vinblastine 24 h before experiments, and the cells were used between passages 25 and 46. Prior to the transport study, cytotoxicity of NGR1, GRg1, GRe, and Borneol toward Caco-2 cells was determined using MTT assays. Noncytotoxic concentrations of 500 μM NGR1, GRg1, GRe, and 200 μM Borneol (dissolved in DMSO) were chosen for transport study.

[2] = system: vinblastine-selected Caco-2 cells; assay: Transport studies across Caco-2 monolayers (P app, efflux ratio); type: in vitro ADME; conditions: for increase of P app (apical-to-basolateral) by Borneol / increase of P app (basolateral-to-apical) by Borneol: 200 μM Borneol, Caco-2; for P app values: Caco-2 monolayers, without Borneol; for substrate of P-gp: concluded from efflux ratio in vinblastine-selected Caco-2 cells
Method: Medium was replaced every 2-3 days. […] The vinblastine-selected Caco-2 cells were cultivated in the presence of 10 nM vinblastine to induce P-glycoprotein (P-gp) expression. […] Prior to the transport study, cytotoxicity of NGR1, GRg1, GRe, and Borneol toward Caco-2 cells was determined using MTT assays.
In transport studies, vinblastine-selected Caco-2 cells were seeded on polycarbonate filter of transwells for 18–21 days before starting transport study, and the monolayers with the transepithelial electrical resistance (TEER) values greater than 300 Ωcm^2 were used. Caco-2 monolayers were rinsed twice with Hanks' balanced salt solution (HBSS) and preincubated in HBSS at 37°C for 30 min before starting experiments. To start the experiments, 500 μM of NGR1, GRg1, and GRe in final concentrations were added to the donor side with or without 200 μM Borneol and then incubated at 37°C. […] After each sampling, 0.1 mL of HBSS was added to the receiver chamber to maintain a constant volume. All the experiments were performed five times in duplicate. The collected samples were stored at −20°C until HPLC analysis. During the above transport studies, the TEER values were also monitored before and at the end of each experiment. Apparent permeability coefficients (P app) were then calculated according to the following equation: (1) Papp=(dC/dt×V)/(A×C0), where dC/dt is the rate of the test compound appearing in the receiver chamber, V is the volume of the solution in the receiver chamber, A is the cell monolayer surface area, and C 0 is the initial concentration of the test compound added in the donor chamber.
The efflux ratio (Er) was calculated using the following equation: (2) Er=Papp(basolateral-apical)/Papp(apical-basolateral).

[3] = Caco-2 Model, 500 μM compound, with or without 200 μM Borneol (see label)

Structure (SMILES) | Noncytotoxic concentration [1] [µM] | increase of P app (apical-to-basolateral) by Borneol [2] [fold] | increase of P app (basolateral-to-apical) by Borneol [2] [fold] | P app values [2] | substrate of P-gp [2] | P app (apical to basolateral) [2, 3] | P app (basolateral to apical) [2, 3] | E r ([2]; efflux ratio P app(basolateral-apical)/P app(apical-basolateral), with or without 200 μM Borneol (see label))
CC(C)=CCC[C@](C)(O[C@@H]1O[C@H](CO)[C@@H](O)[C@H](O)[C@H]1O)[C@H]1CC[C@]2(C)[C@@H]1[C@H](O)C[C@@H]1[C@@]3(C)CC[C@H](O)C(C)(C)[C@@H]3[C@@H](O[C@@H]3O[C@H](CO)[C@@H](O)[C@H](O)[C@H]3O[C@@H]3O[C@@H](C)[C@H](O)[C@@H](O)[C@H]3O)C[C@]12C [GRe, ginsenoside Re] | 500 | 2.3 | 2.4 | less than 10^−6 cm/s | seemed not to be substrates of P-gp |  |  | 
CC(C)=CCC[C@](C)(O[C@@H]1O[C@H](CO)[C@@H](O)[C@H](O)[C@H]1O)[C@H]1CC[C@]2(C)[C@@H]1[C@H](O)C[C@@H]1[C@@]3(C)CC[C@H](O)C(C)(C)[C@@H]3[C@@H](O[C@@H]3O[C@H](CO)[C@@H](O)[C@H](O)[C@H]3O)C[C@]12C [GRg1, ginsenoside Rg1] | 500 | 2.6 | 2.6 | less than 10^−6 cm/s | seemed not to be substrates of P-gp |  |  | 
CC(C)=CCC[C@](C)(O[C@@H]1O[C@H](CO)[C@@H](O)[C@H](O)[C@H]1O)[C@H]1CC[C@]2(C)[C@@H]1[C@H](O)C[C@@H]1[C@@]3(C)CC[C@H](O)C(C)(C)[C@@H]3[C@@H](O[C@@H]3O[C@H](CO)[C@@H](O)[C@H](O)[C@H]3O[C@@H]3OC[C@@H](O)[C@H](O)[C@H]3O)C[C@]12C [NGR1, notoginsenoside R1] | 500 | 2.9 | 2.9 | less than 10^−6 cm/s | seemed not to be substrates of P-gp | 0.64 ± 0.08 × 10^−7 cm/s | 0.68 ± 0.12 × 10^−7 cm/s | 1.06
